Data published in patent US10869848B2 (priority 2014, dated 2020).

Tests used:
[1] = Visual solubility of carmustine in alcoholic solvents; assay type: physicochemical
[2] = Stability of carmustine solution in TBA or dehydrated ethanol; assay type: physicochemical; conditions: storage at room temperature
[3] = alcohol such as tertiary butanol; cited from earlier work

Q: Which results are given for `O=NN(CCCl)C(=O)NCCCl` [Carmustine, 1,3-bis (2-chloroethyl)-1-nitrosourea]?
A: precipitation on storage, TBA solution ([1]; TBA solution stored at about 2 to about 8° C.): Neither of the solutions showed any sign of precipitation; solubility in TBA ([1]; TBA, room temperature, visually determined): > 1 g per mL; precipitation on storage, dehydrated ethanol solution ([1]; dehydrated ethanol solution stored at about 2 to about 8° C.): Neither of the solutions showed any sign of precipitation; solubility in dehydrated ethanol ([1]; dehydrated ethanol, room temperature, visually determined): > 1 g per mL; time solution is stable, TBA ([2]; solution in TBA): at least 24 hrs; time solution is stable, dehydrated ethanol ([2]; solution in dehydrated ethanol): at least 24 hrs; solubility in alcohol, dichloromethane and ether [3]: very soluble
